In ChEMBL document CHEMBL1153273, “4-(Alkylthio)- and 4-(arylthio)-benzonitrile derivatives as androgen receptor antagonists for the topical suppression of sebum production” (Bioorg Med Chem Lett, 2009):

Experiments:
Androgen receptor [1] = molecular target: T1, Androgen receptor (Homo sapiens, UniProt P10275)
T1 sequence (P10275 whole entry): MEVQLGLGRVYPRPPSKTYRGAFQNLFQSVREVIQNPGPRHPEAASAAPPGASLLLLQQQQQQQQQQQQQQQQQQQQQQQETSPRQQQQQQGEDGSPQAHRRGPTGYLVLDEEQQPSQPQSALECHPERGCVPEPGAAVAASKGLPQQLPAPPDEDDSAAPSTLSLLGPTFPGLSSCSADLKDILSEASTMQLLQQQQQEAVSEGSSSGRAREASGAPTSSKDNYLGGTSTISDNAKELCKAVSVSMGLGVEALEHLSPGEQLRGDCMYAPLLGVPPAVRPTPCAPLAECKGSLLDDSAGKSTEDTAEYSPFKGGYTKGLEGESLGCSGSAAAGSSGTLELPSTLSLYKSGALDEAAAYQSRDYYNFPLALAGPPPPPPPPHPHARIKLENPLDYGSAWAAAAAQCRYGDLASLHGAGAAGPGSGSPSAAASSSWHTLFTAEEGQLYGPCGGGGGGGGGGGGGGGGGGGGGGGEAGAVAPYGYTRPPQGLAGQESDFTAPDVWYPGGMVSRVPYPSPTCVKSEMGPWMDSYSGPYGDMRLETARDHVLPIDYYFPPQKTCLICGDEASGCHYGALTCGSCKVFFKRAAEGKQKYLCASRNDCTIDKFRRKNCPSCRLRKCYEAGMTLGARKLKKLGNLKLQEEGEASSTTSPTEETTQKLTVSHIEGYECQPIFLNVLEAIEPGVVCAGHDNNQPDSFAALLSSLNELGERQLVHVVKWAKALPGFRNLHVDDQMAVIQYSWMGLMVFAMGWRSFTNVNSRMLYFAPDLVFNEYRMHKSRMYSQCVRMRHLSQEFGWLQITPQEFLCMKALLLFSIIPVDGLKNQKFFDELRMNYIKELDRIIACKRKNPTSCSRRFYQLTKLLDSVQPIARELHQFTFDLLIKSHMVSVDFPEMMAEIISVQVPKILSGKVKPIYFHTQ
Description: Antagonist activity at human androgen receptor expressed in human MDA-MB453 cells by luciferase reporter gene assay

Androgen receptor [2] = molecular target: T1, Androgen receptor; test: biochemical
Description: Displacement of [3H]DHT from human cloned androgen receptor expressed in Sf9 cells

Syrian golden hamster [3] = test: Reduction of wax ester production in Syrian hamster ear topically dosed at 1% twice daily for 5 days per week for two weeks measured after 18 to 24 hrs of final dose by HPLC lipid analysis; format: functional, Mesocricetus auratus; design: scale not given: the % may be the effect or the level left
Syrian golden hamster [4] = test: Reduction of cholesterol ester production in Syrian hamster ear topically dosed at 1% twice daily for 5 days per week for two weeks measured after 18 to 24 hrs of final dose by HPLC lipid analysis; format: functional, Mesocricetus auratus; design: scale not given: the % may be the effect or the level left

For `CCCSc1ccc(C#N)c(OC)c1`, the IC50 (Androgen receptor [1]) was > 1000 nM and the IC50 (Androgen receptor [2]) was 40 nM.
For `COc1cc(SC(C)C)ccc1C#N`, the Activity (Syrian golden hamster [3]) was 59%, the Activity (Syrian golden hamster [4]) was 46% and the IC50 (Androgen receptor [1]) was 10 nM. For the same compound, the IC50 (Androgen receptor [2]) was 29 nM.
With `COc1cc(C#N)ccc1Oc1cccc(C)c1` the IC50 (Androgen receptor [2]) was 353 nM.
For `COc1cc(Sc2c(C)cccc2C)ccc1C#N`, the Activity (Syrian golden hamster [3]) was 66%, the Activity (Syrian golden hamster [4]) was 45% and the IC50 (Androgen receptor [1]) was 30 nM. For the same compound, the IC50 (Androgen receptor [2]) was 43 nM.
`CC(C)(C)Sc1ccc(C#N)c(C(F)(F)F)c1` showed an IC50 (Androgen receptor [2]) of 315 nM.
Work on `N#Cc1ccc(SC2CCC2)cc1C(F)(F)F` yielded an IC50 (Androgen receptor [1]) of 167 nM and an IC50 (Androgen receptor [2]) of 194 nM.
With `COc1cc(C#N)ccc1Oc1ccccc1C` the IC50 (Androgen receptor [1]) was 48 nM and the IC50 (Androgen receptor [2]) was 115 nM.
Compound `COc1cc(SCC2CCC2)ccc1C#N` has an IC50 (Androgen receptor [2]) of 441 nM.
`N#Cc1ccc(SCC2CC2)cc1C(F)(F)F` gave an Activity (Syrian golden hamster [3]) of 43%, an Activity (Syrian golden hamster [4]) of 35% and an IC50 (Androgen receptor [1]) of 133 nM. It also gave an IC50 (Androgen receptor [2]) of 35 nM.
`N#Cc1ccc(SCC2CCC2)cc1C(F)(F)F` was tested, and the IC50 (Androgen receptor [1]) was 702 nM and the IC50 (Androgen receptor [2]) was 63 nM.
Work on `CC(C)Sc1ccc(C#N)c(C(F)(F)F)c1` yielded an Activity (Syrian golden hamster [3]) of 46%, an Activity (Syrian golden hamster [4]) of 40% and an IC50 (Androgen receptor [1]) of 89 nM. It also gave an IC50 (Androgen receptor [2]) of 20 nM.
Compound `CCCCSc1ccc(C#N)c(OC)c1` has an IC50 (Androgen receptor [1]) of 66 nM and an IC50 (Androgen receptor [2]) of 84 nM.
In the case of `COc1cc(Sc2c(C)cc(C)cc2C)ccc1C#N`, the IC50 (Androgen receptor [1]) is reported as 69 nM and the IC50 (Androgen receptor [2]) is reported as 39 nM.
With `Cc1ccccc1Sc1ccc(C#N)c(C(F)(F)F)c1` the IC50 (Androgen receptor [1]) was 123 nM and the IC50 (Androgen receptor [2]) was 225 nM.
With `COc1ccccc1Sc1ccc(C#N)c(C(F)(F)F)c1` the IC50 (Androgen receptor [1]) was 37 nM and the IC50 (Androgen receptor [2]) was 56 nM.
`Cc1cccc(C)c1Sc1ccc(C#N)c(C(F)(F)F)c1` gave an IC50 (Androgen receptor [2]) of 411 nM.
In the case of `Cc1cc(C)c(Sc2ccc(C#N)c(C(F)(F)F)c2)c(C)c1`, the IC50 (Androgen receptor [2]) is reported as 1340 nM.
Compound `COc1cc(SCCC(C)C)ccc1C#N` has an IC50 (Androgen receptor [2]) of 1730 nM.
`CCCSc1ccc(C#N)c(C(F)(F)F)c1` gave an IC50 (Androgen receptor [1]) of 11 nM and an IC50 (Androgen receptor [2]) of 23 nM.
For `CCCCSc1ccc(C#N)c(C(F)(F)F)c1`, the IC50 (Androgen receptor [1]) was 838 nM and the IC50 (Androgen receptor [2]) was 49 nM.
In the case of `COc1cc(C#N)ccc1Oc1ccc(C)cc1`, the IC50 (Androgen receptor [2]) is reported as 5210 nM.
With `Cc1ccccc1Sc1ccc(C#N)cc1Cl` the IC50 (Androgen receptor [1]) was 78 nM and the IC50 (Androgen receptor [2]) was 43 nM.
For `COc1cc(Oc2cccc(C)c2)ccc1C#N`, the IC50 (Androgen receptor [1]) was 197 nM and the IC50 (Androgen receptor [2]) was 57 nM.
For `Cc1ccccc1[S+]([O-])c1ccc(C#N)cc1Cl` (configuration not stated), the IC50 (Androgen receptor [2]) was > 10000 nM.
Compound `COc1cc(Oc2ccccc2C)ccc1C#N` has an IC50 (Androgen receptor [1]) of 81 nM and an IC50 (Androgen receptor [2]) of 24 nM.
`COc1cc(Oc2ccc(C)cc2)ccc1C#N` showed an IC50 (Androgen receptor [1]) of 209 nM and an IC50 (Androgen receptor [2]) of 200 nM.
In the case of `CC(C)CCSc1ccc(C#N)c(C(F)(F)F)c1`, the IC50 (Androgen receptor [2]) is reported as 519 nM.
Work on `COc1cc(SCC2CC2)ccc1C#N` yielded an IC50 (Androgen receptor [1]) of 55 nM and an IC50 (Androgen receptor [2]) of 169 nM.
Compound `N#Cc1ccc(Sc2ccccc2F)cc1C(F)(F)F` has an Activity (Syrian golden hamster [3]) of 64%, an Activity (Syrian golden hamster [4]) of 50% and an IC50 (Androgen receptor [1]) of 54 nM. For the same compound, the IC50 (Androgen receptor [2]) was 184 nM.
Compound `COc1cc(Sc2ccccc2OC)ccc1C#N` has an IC50 (Androgen receptor [1]) of 35 nM and an IC50 (Androgen receptor [2]) of 20 nM.
Compound `CC1(C)C(=O)N(c2ccc(C#N)c(C(F)(F)F)c2)C(=O)N1CCCCO` [RU-58841] has an Activity (Syrian golden hamster [3]) of 95%.
